In BindingDB's records for doi:10.1021/jm0704898 (Georgetown University Medical Center, 2007):
Positions of bridges follow the written chain, without caps; N, C: chain ends. Residues, ends and D or L forms follow the SMILES beside them.

Experiments:
[1] = molecular target: T1, Suppressor of tumorigenicity 14 protein (Homo sapiens, UniProt Q9Y5Y6); assay: Enzyme Inhibition Assay; conditions: pH 8.5; 22 °C
T1 sequence (Q9Y5Y6 whole entry): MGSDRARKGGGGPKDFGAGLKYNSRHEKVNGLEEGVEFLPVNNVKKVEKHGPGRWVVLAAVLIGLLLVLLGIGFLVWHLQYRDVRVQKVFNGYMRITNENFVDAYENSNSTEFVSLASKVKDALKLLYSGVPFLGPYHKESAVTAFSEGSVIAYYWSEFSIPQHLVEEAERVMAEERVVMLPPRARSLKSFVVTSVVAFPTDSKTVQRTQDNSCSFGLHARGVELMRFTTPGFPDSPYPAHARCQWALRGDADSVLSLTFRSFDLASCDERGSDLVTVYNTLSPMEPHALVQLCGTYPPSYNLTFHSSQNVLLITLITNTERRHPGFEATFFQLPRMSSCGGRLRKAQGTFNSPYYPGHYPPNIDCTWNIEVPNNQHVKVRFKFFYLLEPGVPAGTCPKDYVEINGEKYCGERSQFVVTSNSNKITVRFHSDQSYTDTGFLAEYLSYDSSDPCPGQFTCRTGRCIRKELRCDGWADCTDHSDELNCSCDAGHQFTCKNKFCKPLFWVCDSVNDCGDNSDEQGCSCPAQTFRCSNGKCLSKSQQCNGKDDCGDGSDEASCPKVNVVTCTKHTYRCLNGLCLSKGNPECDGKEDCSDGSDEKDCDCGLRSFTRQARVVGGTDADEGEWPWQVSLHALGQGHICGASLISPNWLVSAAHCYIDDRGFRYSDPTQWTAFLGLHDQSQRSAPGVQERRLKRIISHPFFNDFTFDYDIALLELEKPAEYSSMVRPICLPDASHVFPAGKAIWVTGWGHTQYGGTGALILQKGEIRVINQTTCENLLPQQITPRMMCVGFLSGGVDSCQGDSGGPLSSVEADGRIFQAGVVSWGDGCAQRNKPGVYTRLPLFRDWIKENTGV
Procedure: (§1) The enzyme reaction was initiated by adding fluorescence peptide substrate to reaction mixture containing enzyme and test compounds. […] Hydrolysis rates were recorded in presence of six to seven different concentrations of inhibitor.

Prothrombin = Prothrombin (Bos taurus, UniProt P00735); assay: Enzyme Inhibition Assay; conditions: pH 8.5; 22 °C
Procedure: as §1

Ki [1]	Ki (Prothrombin)	Structure (SMILES)
22.5 µM	827 µM	CC[C@H](C)[C@@H]1NC(=O)[C@@H]2CCCN2C(=O)[C@@H]2CCCN2C(=O)[C@H]([C@@H](C)CC)NC(=O)[C@H](CO)NC(=O)[C@H](CCCCN)NC(=O)[C@H]([C@@H](C)O)NC(=O)[C@@H]2CSSC[C@H](NC1=O)C(=O)N[C@@H](Cc1ccccc1)C(=O)N1CCC[C@H]1C(=O)N[C@@H](CC(=O)O)C(=O)NCC(=O)N[C@@H](CCCNC(N)=O)C(=O)N2 [2-[(1R,4S,7S,13S,19S,22S,25S,28S,31R,34S,40S,43S,49S)-25-(4-aminobutyl)-49-benzyl-4,19-bis[(2S)-butan-2-yl]-34-[3-(carbamoylamino)propyl]-28-[(1R)-1-hydroxyethyl]-22-(hydroxymethyl)-3,6,12,18,21,24,27,30,33,36,39,42,48,51-tetradecaoxo-53,54-dithia-2,5,11,17,20,23,26,29,32,35,38,41,47,50-tetradecaazapentacyclo[29.20.4.0^{7,11}.0^{13,17}.0^{43,47}]pentapentacontan-40-yl]acetic acid]
90 µM	164 µM	CC[C@H](C)[C@@H]1NC(=O)[C@@H]2CCCN2C(=O)[C@@H]2CCCN2C(=O)[C@H]([C@@H](C)CC)NC(=O)[C@H](CO)NC(=O)[C@H](CCCCN)NC(=O)[C@H]([C@@H](C)O)NC(=O)[C@@H]2CSSC[C@H](NC1=O)C(=O)N[C@@H](Cc1ccccc1)C(=O)N1CCC[C@H]1C(=O)N[C@@H](CC(=O)O)C(=O)NCC(=O)N[C@@H](Cc1ccc(N=C(N)N)cc1)C(=O)N2 [2-[(1R,4S,7S,13S,19S,22S,25S,28S,31R,34S,40S,43S,49S)-25-(4-aminobutyl)-49-benzyl-4,19-bis[(2S)-butan-2-yl]-34-[(4-carbamimidamidophenyl)methyl]-28-[(1R)-1-hydroxyethyl]-22-(hydroxymethyl)-3,6,12,18,21,24,27,30,33,36,39,42,48,51-tetradecaoxo-53,54-dithia-2,5,11,17,20,23,26,29,32,35,38,41,47,50-tetradecaazapentacyclo[29.20.4.0^{7,11}.0^{13,17}.0^{43,47}]pentapentacontan-40-yl]acetic acid]
2.33 µM	> 2500 µM	CC[C@H](C)[C@@H]1NC(=O)[C@H](CO)NC(=O)[C@H](CCCCN)NC(=O)[C@H]([C@@H](C)O)NC(=O)[C@@H]2CSSC[C@H](NC(=O)[C@H](CCC(N)=O)NC(=O)[C@@H]3CCCN3C(=O)[C@@H]3CCCN3C1=O)C(=O)N[C@@H](Cc1ccccc1)C(=O)N1CCC[C@H]1C(=O)N[C@@H](CC(=O)O)C(=O)NCC(=O)N[C@@H](CCCN=C(N)N)C(=O)N2 [2-[(1R,4S,7S,13S,19S,22S,25S,28S,31R,34S,40S,43S,49S)-25-(4-aminobutyl)-49-benzyl-19-[(2S)-butan-2-yl]-34-(3-carbamimidamidopropyl)-4-(2-carbamoylethyl)-28-[(1R)-1-hydroxyethyl]-22-(hydroxymethyl)-3,6,12,18,21,24,27,30,33,36,39,42,48,51-tetradecaoxo-53,54-dithia-2,5,11,17,20,23,26,29,32,35,38,41,47,50-tetradecaazapentacyclo[29.20.4.0^{7,11}.0^{13,17}.0^{43,47}]pentapentacontan-40-yl]acetic acid] (cyclo(CFPDGRCTKSIPPQ); disulfide 1-7)
28 µM	45.6 µM	CC[C@H](C)[C@@H]1NC(=O)[C@@H]2CCCN2C(=O)[C@@H]2CCCN2C(=O)[C@H]([C@@H](C)CC)NC(=O)[C@H](CO)NC(=O)[C@H](CCCCCN)NC(=O)[C@H]([C@@H](C)O)NC(=O)[C@@H]2CSSC[C@H](NC1=O)C(=O)N[C@@H](Cc1ccccc1)C(=O)N1CCC[C@H]1C(=O)N[C@@H](CC(=O)O)C(=O)NCC(=O)N[C@@H](CCCN=C(N)N)C(=O)N2 [2-[(1R,4S,7S,13S,19S,22S,25S,28S,31R,34S,40S,43S,49S)-25-(5-aminopentyl)-49-benzyl-4,19-bis[(2S)-butan-2-yl]-34-(3-carbamimidamidopropyl)-28-[(1R)-1-hydroxyethyl]-22-(hydroxymethyl)-3,6,12,18,21,24,27,30,33,36,39,42,48,51-tetradecaoxo-53,54-dithia-2,5,11,17,20,23,26,29,32,35,38,41,47,50-tetradecaazapentacyclo[29.20.4.0^{7,11}.0^{13,17}.0^{43,47}]pentapentacontan-40-yl]acetic acid]
4.75 µM	0.86 µM	CC[C@H](C)[C@@H]1NC(=O)[C@@H]2CCCN2C(=O)[C@@H]2CCCN2C(=O)[C@H]([C@@H](C)CC)NC(=O)[C@H](CO)NC(=O)[C@H](CCCNC(=N)N)NC(=O)[C@H]([C@@H](C)O)NC(=O)[C@@H]2CSSC[C@H](NC1=O)C(=O)N[C@@H](Cc1ccccc1)C(=O)N1CCC[C@H]1C(=O)N[C@@H](CC(=O)O)C(=O)NCC(=O)N[C@@H](CCCNC(=N)N)C(=O)N2 [2-[(1R,4S,7S,13S,19S,22S,25S,28S,31R,34S,40S,43S,49S)-49-benzyl-4,19-bis[(2S)-butan-2-yl]-25,34-bis(3-carbamimidamidopropyl)-28-[(1R)-1-hydroxyethyl]-22-(hydroxymethyl)-3,6,12,18,21,24,27,30,33,36,39,42,48,51-tetradecaoxo-53,54-dithia-2,5,11,17,20,23,26,29,32,35,38,41,47,50-tetradecaazapentacyclo[29.20.4.0^{7,11}.0^{13,17}.0^{43,47}]pentapentacontan-40-yl]acetic acid]
107 µM	40.4 µM	CC[C@H](C)[C@@H]1NC(=O)[C@@H]2CCCN2C(=O)[C@@H]2CCCN2C(=O)[C@H]([C@@H](C)CC)NC(=O)[C@H](CO)NC(=O)[C@H](CCCCN)NC(=O)[C@H]([C@@H](C)O)NC(=O)[C@H](CO)NC(=O)[C@H](CCCN=C(N)N)NC(=O)CNC(=O)[C@H](CC(=O)O)NC(=O)[C@@H]2CCCN2C(=O)[C@H](Cc2ccccc2)NC(=O)[C@H](CO)NC1=O [2-[(1S,7S,10S,13S,16S,22S,25S,31S,34S,37S,40S,43S,46S)-40-(4-aminobutyl)-16-benzyl-10,46-bis[(2S)-butan-2-yl]-31-(3-carbamimidamidopropyl)-37-[(1R)-1-hydroxyethyl]-13,34,43-tris(hydroxymethyl)-2,8,11,14,17,23,26,29,32,35,38,41,44,47-tetradecaoxo-3,9,12,15,18,24,27,30,33,36,39,42,45,48-tetradecaazatetracyclo[46.3.0.0^{3,7}.0^{18,22}]henpentacontan-25-yl]acetic acid]
